# Measured values published in the supplement of paper PMC10307832.
# Tests used:
# Assay in all cases: relative viability (nuclei count vs DMSO), 5 days (fraction); higher = more cells survive
# Metformin + Palbociclib = compound: CN(C)C(=N)NC(=N)N [Metformin] + CC(=O)c1c(C)c2cnc(Nc3ccc(N4CCNCC4)cn3)nc2n(C2CCCC2)c1=O [Palbociclib] (partner 0.5 µM)
# In short: (§1)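 Relative viability equals treated-well nuclei counts divided by vehicle-well nuclei counts. Counts came from 4× images of lung cancer cell lines grown in 1536-well plates for 5 days after pin-tool dosing on the day after seeding. Dosing used one drug alone or a fixed anchor-drug dose plus five library-drug doses (not always all listed) in √10 steps, and values are medians of duplicate plates.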
# Metformin + Alpelisib = compound: CN(C)C(=N)NC(=N)N [Metformin] + Cc1nc(NC(=O)N2CCC[C@H]2C(N)=O)sc1-c1ccnc(C(C)(C)C(F)(F)F)c1 [Alpelisib] (partner 2 µM)
# In short: as §1
# Apatinib + Pictilisib = compound: N#CC1(c2ccc(NC(=O)c3cccnc3NCc3ccncc3)cc2)CCCC1 [Apatinib] + CS(=O)(=O)N1CCN(Cc2cc3nc(-c4cccc5[nH]ncc45)nc(N4CCOCC4)c3s2)CC1 [Pictilisib] (partner 1 µM)
# In short: as §1
# Apatinib + Pemetrexed = compound: N#CC1(c2ccc(NC(=O)c3cccnc3NCc3ccncc3)cc2)CCCC1 [Apatinib] + Nc1nc2[nH]cc(CCc3ccc(C(=O)N[C@@H](CCC(=O)O)C(=O)O)cc3)c2c(=O)[nH]1 [Pemetrexed] (partner 0.2 µM)
# In short: as §1
Cell Line,relative viability (Metformin + Palbociclib; first compound 10 µM),relative viability (Metformin + Palbociclib; first compound 31.62 µM),relative viability (Metformin + Palbociclib; first compound 100 µM),relative viability (Metformin + Palbociclib; first compound 316.23 µM),relative viability (Metformin + Palbociclib; first compound 1000 µM),relative viability (Metformin + Alpelisib; first compound 10 µM),relative viability (Metformin + Alpelisib; first compound 31.62 µM),relative viability (Metformin + Alpelisib; first compound 100 µM),relative viability (Metformin + Alpelisib; first compound 316.23 µM),relative viability (Metformin + Alpelisib; first compound 1000 µM),relative viability (Apatinib + Pictilisib; first compound 0.08 µM),relative viability (Apatinib + Pictilisib; first compound 0.253 µM),relative viability (Apatinib + Pictilisib; first compound 0.8 µM),relative viability (Apatinib + Pictilisib; first compound 2.53 µM),relative viability (Apatinib + Pictilisib; first compound 8 µM),relative viability (Apatinib + Pemetrexed; first compound 0.08 µM),relative viability (Apatinib + Pemetrexed; first compound 0.253 µM),relative viability (Apatinib + Pemetrexed; first compound 0.8 µM),relative viability (Apatinib + Pemetrexed; first compound 2.53 µM),relative viability (Apatinib + Pemetrexed; first compound 8 µM)
NCI-H1993,0.63,0.701,0.739,0.576,0.67,0.634,0.67,0.643,0.62,0.705,0.874,0.828,0.803,0.731,0.817,0.593,0.566,0.605,0.549,0.549
LCLC-103H,0.465,0.561,0.532,0.437,0.495,1.05,1,1.14,1.03,1,0.651,0.639,0.554,0.545,0.546,0.439,0.463,0.412,0.432,0.39
NCI-H441,,0.211,0.165,0.215,0.238,0.566,,0.765,,0.572,0.583,0.566,0.51,0.408,0.32,0.302,0.274,0.261,0.205,0.192
NCI-H1651,0.556,0.681,0.652,0.519,0.605,1.21,1.13,1.14,1.08,1.15,0.665,0.565,0.494,0.614,0.476,0.552,0.555,0.556,0.531,0.483
NCI-H838,0.295,0.278,0.261,0.271,0.298,1.04,0.969,0.969,0.988,1.02,0.533,0.462,0.41,0.469,0.451,0.259,0.291,0.228,0.221,0.207
NCI-H1755,0.411,0.397,0.43,0.433,0.416,0.767,0.826,0.796,0.724,0.798,0.443,0.416,0.447,0.461,0.376,0.423,0.441,0.402,0.329,0.364
NCI-H1734,0.284,0.329,0.292,0.359,0.371,0.697,0.718,0.715,0.681,0.827,0.478,0.491,0.466,0.469,0.416,0.452,0.456,0.429,0.403,0.255
NCI-H2009,0.194,0.321,0.228,0.122,0.202,1.25,1.16,1.13,1.17,1.1,1.12,0.727,0.737,0.644,0.501,1.07,0.996,0.902,0.879,0.661
SW 1573,0.378,0.364,0.321,0.252,0.264,0.853,0.82,0.795,0.8,0.797,0.588,0.476,0.548,0.517,0.535,0.87,0.854,0.806,0.708,0.394
HARA,0.323,0.297,0.442,0.279,0.394,0.915,0.902,1.06,0.89,0.964,0.447,0.491,0.494,0.435,0.307,0.246,0.227,0.21,,0.173
PC-3 [JPC-3],0.444,0.466,,0.46,0.503,0.92,0.971,1.03,0.949,0.965,0.781,0.741,0.594,0.605,0.683,,1.05,1.05,0.726,0.807
NCI-H1666,0.695,0.616,0.642,0.681,0.714,0.943,1.05,1.12,0.981,1.29,0.408,0.413,0.456,0.418,0.54,0.874,0.858,0.842,0.802,0.672
